The source made the active and inactive calls.
Assays:
[1] = target: Cytochrome P450 2C19 (Homo sapiens, UniProt P33261); assay: Cytochrome panel assay with activity outcomes. Panel member name: p450-cyp2c19 Compounds with AC50 equal or less than 10 uM are considered active; format: functional; conditions: read-out: AC50
[2] = target: Cytochrome P450 2D6 (Homo sapiens, UniProt P10635);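 also: CYP2D6 member of a cytochrome P450 panel assay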
[3] = target: Cytochrome P450 3A4 (Homo sapiens, UniProt P08684);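 also: CYP3A4 tested as one member of a cytochrome P450 panel screen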
[4] = inhibitors of intracellular T. cruzi replication, confirmation, NIH3T3 host cells, beta-gal luminescence (AID 2044); format: functional, cell-based;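 also: intracellular parasites grown in NIH/3T3 mouse fibroblasts as host cells; luminescent beta-galactosidase reporter signal from transgenic T. cruzi replicating inside host cells; inhibitors lower the luminescence signal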
[5] = cytotoxicity toward NIH3T3 fibroblasts, dose response, counter-screen, cell-based, ATP luminescence, mouse fibroblasts (AID 2010); format: functional;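 also: cells exposed to compound for about 90 hours before reading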
[6] = tested on: INS1; assay: beta cell apoptosis inhibitors, cytokine rescue, dose response, luminescence, retest (AID 449756); format: functional, cell-based; conditions: Rattus norvegicus;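 also: cell death triggered by IL-1 beta plus TNF-alpha plus IFN-gamma mixture; protective hits raise ATP signal compared with cytokine alone wells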
[7] = target: T1, Polyadenylate-binding protein 1 (Homo sapiens, UniProt P11940); assay: PABP1 MLLE–PAM2 interaction inhibitors, dose response, miRNA deadenylation inhibitor project, biochemical, fluorescence polarization, Cy5-PAM2 peptide, secondary (AID 602260); format: functional; conditions: read-out: IC50_Mean
[8] = target: T1, Polyadenylate-binding protein 1; assay: PABP1 MLLE–PAM2 binding inhibitor potency, dose response, biochemical, fluorescence polarization, FITC-PAM2 peptide (AID 602259); format: functional; conditions: read-out: IC50_Mean
[9] = tested on: H9c2; assay: cells; format: functional, cell-based; conditions: Rattus norvegicus, H9c2, Myocardium;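 also: confirmatory concentration-response retest of ultra-high-throughput screening hits for modulation of myocardial damage; cell death induced by hydrogen peroxide oxidative stress; compound pretreatment for 60 min then peroxide exposure for 2 h; potency is for protecting the cells against peroxide damage rather than for killing them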
[10] = HEp-2 cell cytotoxicity, dose response, cytotoxicity control for RSV inhibitor project, HTS (AID 2410); format: functional; conditions: human respiratory syncytial virus
[11] = target: T2, Heat shock factor protein 1 (Mus musculus, UniProt P38532); assay: HSF1 potentiators in luciferase reporter cells, confirmation, cell-based, NIH3T3, luminescence, dose retest (AID 435004); format: functional;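 also: stress induced by proteasome inhibitor MG132 added 30 min after compound; luciferase reporter driven by HSF1 response element in NIH3T3 cells; actives raise luminescence as potentiators of the MG132 stress response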
T2 sequence (P38532 whole entry): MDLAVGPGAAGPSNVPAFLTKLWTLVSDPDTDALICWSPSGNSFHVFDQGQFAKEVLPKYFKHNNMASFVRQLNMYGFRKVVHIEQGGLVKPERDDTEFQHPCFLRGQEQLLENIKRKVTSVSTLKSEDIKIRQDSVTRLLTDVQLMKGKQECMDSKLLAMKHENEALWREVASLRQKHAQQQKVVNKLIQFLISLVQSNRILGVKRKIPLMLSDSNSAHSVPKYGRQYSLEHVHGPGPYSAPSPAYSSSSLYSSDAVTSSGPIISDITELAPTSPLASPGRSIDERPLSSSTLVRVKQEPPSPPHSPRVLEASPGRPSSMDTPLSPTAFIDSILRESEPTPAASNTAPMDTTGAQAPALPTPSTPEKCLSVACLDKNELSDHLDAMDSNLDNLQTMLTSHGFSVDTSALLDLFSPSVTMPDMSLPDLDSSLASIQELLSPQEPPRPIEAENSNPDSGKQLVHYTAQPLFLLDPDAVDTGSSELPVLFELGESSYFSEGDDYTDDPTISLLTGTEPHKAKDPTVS

[12] = target: T3, Replicative DNA helicase DnaB (Mycobacterium tuberculosis, UniProt P9WMR3); assay: DnaB intein splicing inhibitors, dose response, biochemical, cell-free fluorescence (AID 449749); format: functional
T3 sequence (P9WMR3 whole entry): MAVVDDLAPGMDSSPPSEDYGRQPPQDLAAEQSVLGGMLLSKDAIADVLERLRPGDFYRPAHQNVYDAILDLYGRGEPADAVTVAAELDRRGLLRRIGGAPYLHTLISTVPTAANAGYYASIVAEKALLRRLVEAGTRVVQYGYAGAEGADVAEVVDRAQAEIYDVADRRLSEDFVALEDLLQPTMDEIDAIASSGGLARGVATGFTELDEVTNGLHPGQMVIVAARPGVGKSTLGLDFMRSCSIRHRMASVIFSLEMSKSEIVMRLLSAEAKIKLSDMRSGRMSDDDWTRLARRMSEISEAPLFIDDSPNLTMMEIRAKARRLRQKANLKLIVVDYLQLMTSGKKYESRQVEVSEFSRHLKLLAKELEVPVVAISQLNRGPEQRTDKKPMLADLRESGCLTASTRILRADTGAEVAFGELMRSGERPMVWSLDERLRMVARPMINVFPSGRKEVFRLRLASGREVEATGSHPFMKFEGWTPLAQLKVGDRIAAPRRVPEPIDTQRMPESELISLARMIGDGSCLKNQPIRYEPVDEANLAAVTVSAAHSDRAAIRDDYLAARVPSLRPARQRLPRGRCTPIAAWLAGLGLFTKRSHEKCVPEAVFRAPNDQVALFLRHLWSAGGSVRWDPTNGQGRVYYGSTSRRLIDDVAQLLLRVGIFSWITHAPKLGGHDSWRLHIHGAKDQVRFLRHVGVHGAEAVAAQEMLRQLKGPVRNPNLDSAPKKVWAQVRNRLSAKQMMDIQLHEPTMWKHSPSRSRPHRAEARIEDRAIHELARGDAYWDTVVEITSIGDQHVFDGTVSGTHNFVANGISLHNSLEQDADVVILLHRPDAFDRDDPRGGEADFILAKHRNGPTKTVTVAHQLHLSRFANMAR

[13] = target: T4, Protein RecA (Mycobacterium tuberculosis, UniProt P9WHJ3); assay: Fluorescence Cell-Free Homogeneous Dose Retest to Identify Inhibitors of RecA-Intein Splicing Activity. [Related pubchem assays (depositor defined):AID2097, AID2223, AID489010, AID492950]; format: functional
T4 sequence (P9WHJ3 whole entry): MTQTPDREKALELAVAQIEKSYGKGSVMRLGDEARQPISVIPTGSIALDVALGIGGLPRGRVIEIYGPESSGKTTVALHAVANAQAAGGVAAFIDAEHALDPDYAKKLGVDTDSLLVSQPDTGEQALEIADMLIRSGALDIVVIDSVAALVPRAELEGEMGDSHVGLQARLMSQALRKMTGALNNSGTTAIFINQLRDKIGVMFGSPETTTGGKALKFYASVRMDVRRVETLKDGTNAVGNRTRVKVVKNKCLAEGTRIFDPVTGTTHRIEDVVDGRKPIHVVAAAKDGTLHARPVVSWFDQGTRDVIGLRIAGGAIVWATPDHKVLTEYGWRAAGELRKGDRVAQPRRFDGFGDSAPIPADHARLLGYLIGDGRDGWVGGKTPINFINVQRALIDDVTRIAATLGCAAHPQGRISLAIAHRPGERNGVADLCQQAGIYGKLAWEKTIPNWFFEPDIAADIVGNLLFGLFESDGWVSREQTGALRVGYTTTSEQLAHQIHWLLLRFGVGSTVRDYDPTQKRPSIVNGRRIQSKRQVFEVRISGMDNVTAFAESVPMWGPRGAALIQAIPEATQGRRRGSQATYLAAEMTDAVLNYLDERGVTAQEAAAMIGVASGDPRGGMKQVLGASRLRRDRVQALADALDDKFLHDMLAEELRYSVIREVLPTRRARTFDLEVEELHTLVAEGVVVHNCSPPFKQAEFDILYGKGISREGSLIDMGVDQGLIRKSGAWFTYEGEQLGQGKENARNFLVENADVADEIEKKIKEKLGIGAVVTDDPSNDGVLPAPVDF

[14] = target: Cytochrome P450 2C9 (Homo sapiens, UniProt P11712)
[15] = NIH-3T3 fibroblast cytotoxicity, dose response, cytotoxicity control, cell-based, fluorescence, Alamar Blue, secondary assay (AID 2327); format: functional;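 also: NIH-3T3 mouse fibroblasts cultured with fluconazole at 8 µg/mL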

Chain of Cytochrome P450 2D6 (P10635 whole entry): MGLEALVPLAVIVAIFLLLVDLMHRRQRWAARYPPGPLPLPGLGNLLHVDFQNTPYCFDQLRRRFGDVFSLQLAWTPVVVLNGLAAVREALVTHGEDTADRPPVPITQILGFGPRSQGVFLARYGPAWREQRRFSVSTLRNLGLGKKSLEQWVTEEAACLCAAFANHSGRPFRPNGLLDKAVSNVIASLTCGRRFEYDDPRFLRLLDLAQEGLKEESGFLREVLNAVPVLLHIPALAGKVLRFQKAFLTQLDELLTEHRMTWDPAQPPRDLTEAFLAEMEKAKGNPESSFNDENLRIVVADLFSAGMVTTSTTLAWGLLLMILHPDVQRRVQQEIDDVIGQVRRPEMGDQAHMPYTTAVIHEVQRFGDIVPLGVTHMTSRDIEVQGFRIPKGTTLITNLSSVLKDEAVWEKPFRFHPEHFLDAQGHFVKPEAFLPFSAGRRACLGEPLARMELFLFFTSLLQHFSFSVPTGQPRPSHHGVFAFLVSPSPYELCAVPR
Chain of Cytochrome P450 2C19 (P33261 whole entry): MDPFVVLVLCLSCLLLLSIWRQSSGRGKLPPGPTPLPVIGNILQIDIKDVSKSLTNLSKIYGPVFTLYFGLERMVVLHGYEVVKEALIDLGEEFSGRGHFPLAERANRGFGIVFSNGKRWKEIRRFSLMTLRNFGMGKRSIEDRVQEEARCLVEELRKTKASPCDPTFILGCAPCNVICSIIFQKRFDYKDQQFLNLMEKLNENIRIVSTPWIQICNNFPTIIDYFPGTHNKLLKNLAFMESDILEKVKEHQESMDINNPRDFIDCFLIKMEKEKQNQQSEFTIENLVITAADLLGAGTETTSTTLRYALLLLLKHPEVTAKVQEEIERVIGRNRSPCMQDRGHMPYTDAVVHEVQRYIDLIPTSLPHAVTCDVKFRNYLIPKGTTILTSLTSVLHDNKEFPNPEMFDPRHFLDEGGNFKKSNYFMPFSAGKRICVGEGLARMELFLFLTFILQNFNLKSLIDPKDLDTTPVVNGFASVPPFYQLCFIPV
T1 sequence (P11940 whole entry): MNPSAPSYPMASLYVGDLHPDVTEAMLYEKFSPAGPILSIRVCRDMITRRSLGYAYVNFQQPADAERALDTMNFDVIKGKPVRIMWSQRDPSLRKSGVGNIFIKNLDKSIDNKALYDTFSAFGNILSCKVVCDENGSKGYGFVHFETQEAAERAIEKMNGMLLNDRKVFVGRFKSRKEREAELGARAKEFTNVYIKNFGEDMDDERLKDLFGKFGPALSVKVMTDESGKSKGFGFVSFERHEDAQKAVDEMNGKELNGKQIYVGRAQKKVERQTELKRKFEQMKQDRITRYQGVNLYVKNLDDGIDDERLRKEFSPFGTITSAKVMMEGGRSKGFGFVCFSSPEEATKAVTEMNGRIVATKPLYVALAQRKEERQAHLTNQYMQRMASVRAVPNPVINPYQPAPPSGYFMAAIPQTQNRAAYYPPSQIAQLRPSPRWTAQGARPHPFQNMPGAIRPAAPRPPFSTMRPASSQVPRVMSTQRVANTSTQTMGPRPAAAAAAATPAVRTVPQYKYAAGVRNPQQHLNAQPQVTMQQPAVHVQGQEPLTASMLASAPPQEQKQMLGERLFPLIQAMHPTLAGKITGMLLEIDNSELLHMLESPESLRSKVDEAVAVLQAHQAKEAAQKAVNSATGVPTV
Chain of Cytochrome P450 2C9 (P11712 whole entry): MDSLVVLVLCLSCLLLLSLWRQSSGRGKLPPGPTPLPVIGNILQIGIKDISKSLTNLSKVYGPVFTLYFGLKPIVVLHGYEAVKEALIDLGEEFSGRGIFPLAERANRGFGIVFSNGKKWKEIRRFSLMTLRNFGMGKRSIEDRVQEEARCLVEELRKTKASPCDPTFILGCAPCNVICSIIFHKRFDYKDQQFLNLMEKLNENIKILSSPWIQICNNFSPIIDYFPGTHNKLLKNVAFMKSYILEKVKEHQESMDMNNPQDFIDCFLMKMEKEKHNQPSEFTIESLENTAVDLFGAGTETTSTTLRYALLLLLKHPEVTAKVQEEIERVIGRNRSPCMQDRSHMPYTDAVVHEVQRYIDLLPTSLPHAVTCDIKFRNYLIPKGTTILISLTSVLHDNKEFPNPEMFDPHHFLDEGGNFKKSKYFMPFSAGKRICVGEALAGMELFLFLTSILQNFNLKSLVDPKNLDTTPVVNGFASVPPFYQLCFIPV
Chain of Cytochrome P450 3A4 (P08684 whole entry): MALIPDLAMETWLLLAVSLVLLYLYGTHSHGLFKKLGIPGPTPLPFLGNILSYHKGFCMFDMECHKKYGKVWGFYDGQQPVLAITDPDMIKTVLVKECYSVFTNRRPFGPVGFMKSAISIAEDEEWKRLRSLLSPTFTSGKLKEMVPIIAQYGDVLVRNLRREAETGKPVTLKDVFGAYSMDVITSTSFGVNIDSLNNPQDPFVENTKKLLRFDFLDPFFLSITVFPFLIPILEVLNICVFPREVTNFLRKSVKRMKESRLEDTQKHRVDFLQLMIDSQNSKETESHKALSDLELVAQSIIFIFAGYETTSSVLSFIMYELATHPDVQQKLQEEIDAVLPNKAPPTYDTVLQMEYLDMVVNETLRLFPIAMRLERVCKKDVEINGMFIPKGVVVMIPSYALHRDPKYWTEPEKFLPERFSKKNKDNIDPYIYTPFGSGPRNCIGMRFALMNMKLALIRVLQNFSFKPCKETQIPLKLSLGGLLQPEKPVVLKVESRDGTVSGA

Cc1noc(C)c1-c1nc(N(C)C)c2ccccc2n1
AC50 [1]: 25.1 µM (inconclusive) | AC50 [2]: 20 µM (inconclusive) | AC50 [3]: 15.8 µM (inconclusive)

Cc1cc2cc(CN3C(=O)c4ccccc4C3=O)ccc2n1C
EC50 [4]: < 0.1 µM (active) | EC50 [5]: > 60 µM (not active) | AC50 [6]: 13.3 µM (active) | IC50 [7]: > 66 µM (inactive) | IC50 [8]: 55.2 µM (inactive)

Cn1c(SCc2nc3ccccc3n2CCO)nc2ccccc21
AC50 [2]: 20 µM (inconclusive)

COc1cc(C(=O)Nc2cc3c(cc2N2CCCCC2)n(C)c(=O)n3C)cc(OC)c1OC
IC50 [9]: 8.81 µM (active)

CCC(Sc1nc2cc3c(cc2c(=O)n1Cc1ccco1)OCO3)C(=O)Nc1ccccc1OC (stereo unspecified)
AC50 [2]: 5.01 µM (inconclusive)

CC(C)c1ccc(/C=C/C(=O)n2nnc3ccccc32)cc1
CC50 [10]: 25.1 µM (active) | EC50 [11]: 14.2 µM (active)

CCOC(=O)CNc1nnc(SCC(=O)OCC)[nH]c1=O
AC50 [12]: 8.14 µM (active) | EC50 [13]: 0.845 µM (active) | IC50 [7]: > 66 µM (inactive) | IC50 [8]: > 66 µM (inactive)

Cc1nonc1C1CCCN1Cc1c[nH]nc1-c1ccc(-c2ccccc2)cc1 (stereo unspecified)
CC50 [10]: 21.4 µM (active) | EC50 [11]: 35.2 µM (active)

Cc1ccccc1NC(=O)COC(=O)CCc1nc(O)c2ccccc2n1
IC50 [9]: 10.1 µM (active)

Cc1ccc2c(c1)N(C(=O)CSc1nncn1C)C(C)(C)c1ssc(=S)c1-2
AC50 [12]: 8.82 µM (active) | EC50 [13]: 10.1 µM (active)

CCC(=O)Oc1ccc2c(C)cc(=O)oc2c1C
IC50 [9]: 74.2 µM (inactive)

O=[N+]([O-])c1cc(/C=N/c2cccc3c(O)cccc23)ccc1Cl
AC50 [12]: 46.8 µM (active) | EC50 [13]: 8.76 µM (active)

CSc1ccccc1N=C(S)Nc1ccc(S(N)(=O)=O)cc1
IC50 [7]: > 66 µM (inactive) | IC50 [8]: > 66 µM (inactive)

CN(C)c1ncc2nc(-c3ccc(Cl)cc3)c(=O)n(C[C@H]3CCCO3)c2n1
AC50 [2]: 1.58 µM (inconclusive)

CSc1nc2ccccc2cc1/C=C(\C#N)c1cccc(C)c1
AC50 [2]: 6.31 µM (inconclusive) | AC50 [3]: 25.1 µM (inconclusive) | AC50 [14]: 31.6 µM (inconclusive)

CC(C)c1cccc2c([Si](C)(C)C)c3c(nc12)-c1cccc(=O)n1C3
AC50 [2]: 20 µM (inconclusive)

CC(=O)c1cccc(-c2cnc3c(NC=O)cc(-c4ccc(F)cc4)cn23)c1
IC50 [9]: > 79 µM (inactive)

COC(=O)c1[nH]c2c(c1C)C(=O)CC(c1cc(OC)ccc1OC)C2 (stereo unspecified)
IC50 [9]: > 79 µM (inactive)

CCN1CCN(c2nc3ccccc3nc2C(C#N)C(=O)OC2CCCCC2)CC1 (stereo unspecified)
AC50 [1]: 39.8 µM (inconclusive) | AC50 [2]: 28.2 µM (inconclusive) | AC50 [14]: 39.8 µM (inconclusive)

COCc1nnc(NC(=O)c2ccc(S(=O)(=O)N3CCCCCC3)cc2)o1
EC50 [15]: > 160 µM (inactive)

COc1cc(/C=N/NC(=O)c2ccncc2)ccc1OCC(=O)Nc1ccc(C)c(C)c1
IC50 [9]: > 79 µM (inactive)

COC(=O)COc1ccc(C(c2c(C)n[nH]c2O)c2c(C)n[nH]c2O)cc1
AC50 [12]: 0.347 µM (active) | EC50 [13]: 0.377 µM (active)

CSc1ccc(C(c2c(C)n[nH]c2O)c2c(C)n[nH]c2O)cc1
AC50 [12]: 0.432 µM (active) | EC50 [13]: 0.241 µM (active)

CCOc1cccc(=O)c2c(C)oc(C)c12
IC50 [7]: 37.3 µM (inactive) | IC50 [8]: 41.6 µM (inactive)

Cc1cc[n+](-c2[n-]c(=O)sc2C=NNC(=O)c2ccccc2)cc1
IC50 [7]: > 66 µM (inactive) | IC50 [8]: > 66 µM (inactive)

COC(=O)[C@@]1(Cc2ccccc2)[C@H]2c3cc(C(=O)N(C)C)n(Cc4ccccc4)c3C[C@H]2CN1C(=O)c1ccccc1
AC50 [2]: 39.8 µM (inconclusive)

COc1cccc(-c2nc(NCc3cnc(C)cn3)c3ccccc3n2)c1
AC50 [1]: 25.1 µM (inconclusive) | AC50 [2]: 39.8 µM (inconclusive)

CCC(C)(C)n1nnnc1CN(Cc1ccco1)Cc1cc2cc3c(cc2nc1O)OCO3
IC50 [7]: > 66 µM (inactive) | IC50 [8]: > 66 µM (inactive)

COc1ccc(C(=O)c2ccccc2)c(O)c1 [OXYBENZONE]
AC50 [1]: 0.398 µM (inconclusive) | AC50 [2]: 12.6 µM (inconclusive)

Cn1ccnc1P(=S)(c1nccn1C)N1CCOCC1
IC50 [7]: > 66 µM (inactive) | IC50 [8]: > 66 µM (inactive)

O=C(Oc1ccccc1)N1CCC2(CC1)CCN(c1ccncc1)CC2
AC50 [2]: 39.8 µM (inconclusive) | AC50 [14]: 20 µM (inconclusive)

Cc1n[nH]c2c1C1(CCC3(CC1)OCCO3)C(C#N)=C(N)O2
AC50 [12]: > 380 µM (inactive) | EC50 [13]: > 380 µM (inactive)

COCCNc1ncnc2ccc(-c3ccccc3C(F)(F)F)cc12
AC50 [2]: 39.8 µM (inconclusive)

— ChEMBL document CHEMBL1201862, “PubChem BioAssay data set” (2004)
